Results reported in ChEMBL document CHEMBL1201862, “PubChem BioAssay data set” (2004).
One block for each molecule: values may come before it. The source made the active and inactive calls.

How the values were obtained:
[1] = inhibitors of HIV Env-driven cell fusion, dose response, cherry-pick (AID 652057); type: functional, cell-based
[2] = inhibitors of clade B AD8 Env fusion, dose response, cell-based, cherry-pick (AID 652062); type: functional;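 note: luciferase signal from cell-cell fusion driven by HIV-1 clade B AD8 Env; potency is for inhibitors of fusion seen as a drop in luminescence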
[3] = molecular target: T1, Polyadenylate-binding protein 1 (Homo sapiens, UniProt P11940); assay: PABP1 MLLE–PAM2 interaction inhibitors, dose response, miRNA deadenylation inhibitor project, biochemical, fluorescence polarization, Cy5-PAM2 peptide, secondary (AID 602260); type: functional; settings: read-out: IC50_Mean
T1 sequence (P11940 whole entry): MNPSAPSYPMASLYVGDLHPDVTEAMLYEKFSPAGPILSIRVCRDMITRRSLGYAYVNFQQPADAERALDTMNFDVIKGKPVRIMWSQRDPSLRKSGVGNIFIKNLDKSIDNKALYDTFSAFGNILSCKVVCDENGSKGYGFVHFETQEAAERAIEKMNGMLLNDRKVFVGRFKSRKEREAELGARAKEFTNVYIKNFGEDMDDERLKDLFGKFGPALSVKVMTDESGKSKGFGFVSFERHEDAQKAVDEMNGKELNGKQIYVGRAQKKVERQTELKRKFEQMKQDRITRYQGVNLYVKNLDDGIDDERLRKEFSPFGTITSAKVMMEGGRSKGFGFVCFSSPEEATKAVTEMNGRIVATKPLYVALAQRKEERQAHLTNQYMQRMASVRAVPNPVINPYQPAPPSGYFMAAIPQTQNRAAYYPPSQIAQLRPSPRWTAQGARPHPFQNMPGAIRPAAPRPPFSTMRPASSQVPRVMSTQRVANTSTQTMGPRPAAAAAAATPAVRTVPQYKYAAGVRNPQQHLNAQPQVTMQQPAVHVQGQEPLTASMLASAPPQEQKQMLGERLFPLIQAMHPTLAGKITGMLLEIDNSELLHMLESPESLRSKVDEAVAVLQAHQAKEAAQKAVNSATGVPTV

[4] = molecular target: T1, Polyadenylate-binding protein 1; assay: PABP1 MLLE–PAM2 binding inhibitor potency, dose response, biochemical, fluorescence polarization, FITC-PAM2 peptide (AID 602259); type: functional; settings: read-out: IC50_Mean
[5] = molecular target: T2, Rac GTPase-activating protein 1 (Homo sapiens, UniProt Q9H0H5); assay: MgcRacGAP GTPase-activating activity inhibitors, confirmation, biochemical, ADP Hunter fluorescence, primary and confirmatory (AID 624330); type: functional
T2 sequence (Q9H0H5 whole entry): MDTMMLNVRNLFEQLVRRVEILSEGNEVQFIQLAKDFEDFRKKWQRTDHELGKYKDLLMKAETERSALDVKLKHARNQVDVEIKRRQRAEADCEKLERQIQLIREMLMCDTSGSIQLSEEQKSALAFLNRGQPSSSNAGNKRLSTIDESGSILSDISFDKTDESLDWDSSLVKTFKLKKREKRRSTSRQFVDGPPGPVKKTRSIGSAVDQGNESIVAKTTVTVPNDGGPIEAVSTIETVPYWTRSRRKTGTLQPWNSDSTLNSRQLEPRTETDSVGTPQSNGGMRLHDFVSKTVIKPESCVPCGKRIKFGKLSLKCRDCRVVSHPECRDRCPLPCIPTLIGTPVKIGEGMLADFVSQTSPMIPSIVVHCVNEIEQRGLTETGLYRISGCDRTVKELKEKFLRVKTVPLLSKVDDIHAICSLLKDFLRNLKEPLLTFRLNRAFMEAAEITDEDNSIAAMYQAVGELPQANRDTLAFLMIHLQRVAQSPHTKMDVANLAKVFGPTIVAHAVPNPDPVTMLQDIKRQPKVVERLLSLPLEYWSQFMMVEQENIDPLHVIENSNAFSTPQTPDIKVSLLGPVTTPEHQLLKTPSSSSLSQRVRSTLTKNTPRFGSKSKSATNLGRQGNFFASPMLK

[6] = molecular target: T3, Histone-lysine N-methyltransferase NSD2 (Homo sapiens, UniProt O96028); type: biochemical
T3 sequence (O96028 whole entry): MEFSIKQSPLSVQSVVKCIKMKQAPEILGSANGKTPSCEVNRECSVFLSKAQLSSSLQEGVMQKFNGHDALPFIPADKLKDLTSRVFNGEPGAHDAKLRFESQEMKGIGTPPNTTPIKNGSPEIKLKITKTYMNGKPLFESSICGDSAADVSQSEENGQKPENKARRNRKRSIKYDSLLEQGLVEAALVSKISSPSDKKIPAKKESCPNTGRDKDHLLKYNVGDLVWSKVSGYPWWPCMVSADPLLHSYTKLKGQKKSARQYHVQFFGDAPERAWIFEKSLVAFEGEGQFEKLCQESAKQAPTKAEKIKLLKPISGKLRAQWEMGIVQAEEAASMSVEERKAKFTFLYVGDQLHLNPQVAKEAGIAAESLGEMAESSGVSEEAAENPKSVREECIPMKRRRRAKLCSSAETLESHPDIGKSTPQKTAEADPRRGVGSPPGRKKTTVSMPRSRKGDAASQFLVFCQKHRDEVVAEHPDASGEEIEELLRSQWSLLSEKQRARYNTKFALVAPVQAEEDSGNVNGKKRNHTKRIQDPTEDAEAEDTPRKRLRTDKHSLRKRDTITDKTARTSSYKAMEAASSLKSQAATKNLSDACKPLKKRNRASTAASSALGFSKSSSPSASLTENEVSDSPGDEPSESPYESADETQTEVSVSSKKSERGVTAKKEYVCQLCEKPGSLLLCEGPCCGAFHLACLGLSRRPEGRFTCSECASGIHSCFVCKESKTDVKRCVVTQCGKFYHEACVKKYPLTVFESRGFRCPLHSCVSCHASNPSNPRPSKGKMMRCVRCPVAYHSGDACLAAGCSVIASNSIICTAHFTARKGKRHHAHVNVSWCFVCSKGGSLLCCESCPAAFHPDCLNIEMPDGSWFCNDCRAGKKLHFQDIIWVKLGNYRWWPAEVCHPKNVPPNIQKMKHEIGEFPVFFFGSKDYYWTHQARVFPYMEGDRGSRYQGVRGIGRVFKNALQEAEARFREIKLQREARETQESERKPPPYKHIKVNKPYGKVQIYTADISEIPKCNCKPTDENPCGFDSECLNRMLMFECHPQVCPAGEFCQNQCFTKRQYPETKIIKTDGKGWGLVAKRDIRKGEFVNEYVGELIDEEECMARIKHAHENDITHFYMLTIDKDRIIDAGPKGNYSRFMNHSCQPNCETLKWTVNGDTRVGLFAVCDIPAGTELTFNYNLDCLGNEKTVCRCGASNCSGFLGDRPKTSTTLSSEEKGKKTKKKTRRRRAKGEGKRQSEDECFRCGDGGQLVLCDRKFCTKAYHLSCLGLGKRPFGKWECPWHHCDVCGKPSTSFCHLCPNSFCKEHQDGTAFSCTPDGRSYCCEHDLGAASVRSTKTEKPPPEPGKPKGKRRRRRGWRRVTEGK

Beta-galactosidase = Beta-galactosidase (Escherichia coli, UniProt Q8VNN2); assay: PubChem AID 485352; type: functional
Sequence of Beta-galactosidase (Q8VNN2 whole entry): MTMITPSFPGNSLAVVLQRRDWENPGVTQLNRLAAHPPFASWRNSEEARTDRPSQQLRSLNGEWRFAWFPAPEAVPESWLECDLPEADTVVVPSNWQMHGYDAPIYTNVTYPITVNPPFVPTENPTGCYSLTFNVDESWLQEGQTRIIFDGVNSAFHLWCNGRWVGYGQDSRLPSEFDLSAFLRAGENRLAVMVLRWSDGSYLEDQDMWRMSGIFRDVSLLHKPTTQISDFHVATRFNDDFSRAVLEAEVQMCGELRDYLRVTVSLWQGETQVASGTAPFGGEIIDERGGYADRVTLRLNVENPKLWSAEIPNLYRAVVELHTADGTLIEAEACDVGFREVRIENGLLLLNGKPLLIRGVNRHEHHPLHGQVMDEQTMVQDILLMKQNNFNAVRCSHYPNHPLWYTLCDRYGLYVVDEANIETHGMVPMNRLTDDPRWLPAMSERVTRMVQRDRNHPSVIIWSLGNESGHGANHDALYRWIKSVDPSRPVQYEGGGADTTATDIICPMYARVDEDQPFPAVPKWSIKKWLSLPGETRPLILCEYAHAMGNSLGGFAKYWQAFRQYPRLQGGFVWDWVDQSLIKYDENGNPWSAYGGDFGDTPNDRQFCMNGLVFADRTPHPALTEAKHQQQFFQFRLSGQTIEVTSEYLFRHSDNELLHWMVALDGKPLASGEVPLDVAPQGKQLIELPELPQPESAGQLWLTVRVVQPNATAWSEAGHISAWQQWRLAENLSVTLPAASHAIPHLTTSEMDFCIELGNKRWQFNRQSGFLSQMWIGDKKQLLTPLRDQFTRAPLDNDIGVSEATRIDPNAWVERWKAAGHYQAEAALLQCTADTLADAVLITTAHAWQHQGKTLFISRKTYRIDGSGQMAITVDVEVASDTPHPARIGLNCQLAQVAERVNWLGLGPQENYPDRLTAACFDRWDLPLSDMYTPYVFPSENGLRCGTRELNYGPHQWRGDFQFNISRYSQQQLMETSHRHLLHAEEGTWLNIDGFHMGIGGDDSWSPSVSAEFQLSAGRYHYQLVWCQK

[7] = molecular target: T4, Type-1 angiotensin II receptor (Homo sapiens, UniProt P30556); assay: AT1 receptor antagonists, dose response, selectivity assay for APJ receptor antagonist project, cell-based, uHTS hits (AID 463214); type: functional;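 note: antagonist potency against angiotensin II stimulated AT1 response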
T4 sequence (P30556 whole entry): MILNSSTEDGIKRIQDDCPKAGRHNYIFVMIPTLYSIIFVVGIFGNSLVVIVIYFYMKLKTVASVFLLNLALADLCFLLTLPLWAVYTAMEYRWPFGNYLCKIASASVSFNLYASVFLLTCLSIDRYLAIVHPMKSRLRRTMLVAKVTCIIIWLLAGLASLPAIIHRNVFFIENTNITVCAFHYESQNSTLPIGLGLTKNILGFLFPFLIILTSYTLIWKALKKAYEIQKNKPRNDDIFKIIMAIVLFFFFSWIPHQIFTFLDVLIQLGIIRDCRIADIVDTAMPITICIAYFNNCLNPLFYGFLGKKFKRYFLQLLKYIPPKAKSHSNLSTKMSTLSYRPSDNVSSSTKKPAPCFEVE

[8] = inhibitors of Vif binding to APOBEC3G peptide, primary screen, biochemical, TR-FRET, GST-Vif 1-94, biotin-A3G peptide, dose response retest (AID 1117319); type: functional;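 note: TR-FRET signal of purified GST-Vif binding a biotinylated A3G peptide; inhibitors lower the FRET signal by blocking Vif and A3G binding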
[9] = molecular target: T5, Calpain-2 catalytic subunit (Sus scrofa, UniProt P43367); assay: pig calpain II inhibitor potency, dose response, biochemical, fluorogenic peptide substrate (AID 1420); type: functional
T5 sequence (P43367 whole entry): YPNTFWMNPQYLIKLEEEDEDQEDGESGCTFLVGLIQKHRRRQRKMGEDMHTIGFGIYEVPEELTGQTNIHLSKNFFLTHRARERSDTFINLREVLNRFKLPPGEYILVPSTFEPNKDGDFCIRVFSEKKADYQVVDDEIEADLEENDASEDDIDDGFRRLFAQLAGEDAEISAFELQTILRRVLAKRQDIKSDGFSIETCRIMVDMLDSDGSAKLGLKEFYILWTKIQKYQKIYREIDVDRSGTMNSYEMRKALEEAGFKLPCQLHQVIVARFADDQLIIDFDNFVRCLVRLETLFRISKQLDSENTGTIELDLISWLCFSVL

[10] = P. falciparum 3D7-ScDHODH growth inhibitors, dose response, SYBR Green, dry powder samples (AID 1159570); type: functional, cell-based;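 note: parasite growth measured after 72 hours of compound exposure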
[11] = P. falciparum Dd2 growth inhibitors, dose response, SYBR Green, cherry-picked samples (AID 1159567); type: functional, cell-based
[12] = P. falciparum Dd2 growth inhibitors, dose response, SYBR Green, dry powder samples (AID 1159566); type: functional, cell-based;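 note: potency for growth inhibition with lower SYBR green DNA signal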
[13] = P. falciparum ATP4 D1247Y mutant growth inhibitors, dose response, NITD609-resistant line, SYBR Green, dry powder (AID 1159571); type: functional, cell-based;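 note: parasites synchronized at ring stage by sorbitol before testing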

SMILES: CC(c1nc(O)c2ccccc2n1)N(C)CCOc1ccc(Cl)cc1 (stereo not given)
- AC50 [1]: 57.3 µM (active)
- AC50 [2]: 28.3 µM (active)

SMILES: CSc1nc2oc3c(c2c2nncn12)CC(C)(C)SC3
- IC50 [3]: > 66 µM (inactive)
- IC50 [4]: > 66 µM (inactive)

SMILES: Cc1ccc(S(=O)(=O)N(C)C[C@@H]2OCc3ccccc3-c3c(n(C)c4ccccc34)C(=O)N([C@@H](C)CO)C[C@@H]2C)cc1
- AC50 [10]: 0.427 µM (active)
- AC50 [11]: 0.611 µM (active)
- AC50 [12]: 0.346 µM (active)
- AC50 [13]: 0.291 µM (active)

SMILES: COc1cc(C(=S)N2CCOCC2)ccc1O [VANITIOLIDE]
- IC50 [3]: > 66 µM (inactive)
- IC50 [4]: > 66 µM (inactive)

Next, values leading:

- IC50 [5]: 63.6 µM (active)
- AC50 [6]: 1.79 µM (active)
SMILES: N=C1/C(=C\c2ccc(O)c(O)c2)C(=O)N=C2SC(CC(=O)N3CCOCC3)=NN12

- EC50 (Beta-galactosidase): > 40 µM (inactive)
- IC50 [7]: > 40 µM (not active)
- IC50 [3]: > 66 µM (inactive)
- IC50 [4]: > 66 µM (inactive)
SMILES: C/C(=N\NC(=S)Nc1cccc(C)c1)c1ccccc1

- IC50 [3]: > 66 µM (inactive)
- IC50 [4]: > 66 µM (inactive)
SMILES: Cn1cc(/C=N\O)nc2c(=O)n(-c3ccccc3)c(=O)nc1-2

- IC50 [8]: > 100 µM (active)
SMILES: CC1SC(N/N=C/c2ccco2)=NC1=O (stereo not given)

- IC50 [9]: 4.39 µM (not active)
SMILES: O=C(N/N=C/c1cc(Br)cs1)c1c[nH]c2ccccc12
